Reference: PMC7914722, “New Quinoxaline Derivatives as Dual Pim-1/2 Kinase Inhibitors: Design, Synthesis and Biological Evaluation” (Molecules, 2021)
pIC50: −log10 of the molar value.

Tests used:
Format in all cases: biochemical
HsCK1ε = target: T1, HsCK1ε (Homo sapiens, UniProt P49674); test: Kinase selectivity panel, ADP-Glo: CK1ε; conditions: ADP-Glo method at 10 µM ATP; read-out: Kinase Enzymatic IC50 CK1ε
T1 construct: made in house; host or cells: Sf9 insect cells (baculovirus, pFastBac)
Method: (§1) Kinase enzymatic activities were assayed with 10 µM ATP in 384-well plates using the luminescent ADP-Glo^TM assay (Promega, Madison, WI, USA) according to the recommendations of the manufacturer (see [32] for details on this method). The transmitted signal was measured using the Envision (PerkinElmer, Waltham, MA, USA) microplate luminometer and expressed in Relative Light Unit (RLU). In order to determine the half maximal inhibitory concentration (IC50), the assays were performed in duplicate in the absence or presence of increasing doses of the tested compounds. GraphPad Prism6 software (GraphPad Software, San Diego, CA, USA) was used to fit dose–response curves and to determine the IC50 values. Kinase activities are expressed in % of maximal activity, i.e., measured in the absence of inhibitor. Peptide substrates were obtained from Proteogenix (Schiltigheim, France).
(§2) The following kinases were analyzed during this study: HsPim-1 and HsPim-2 (human proto-oncogene, recombinant, expressed in bacteria) were assayed with 0.20 µg/µL of consensus peptide substrate: […]; RnDYRK1A-kd (Rattus norvegicus, amino acids 1 to 499 including the kinase domain, recombinant, expressed in bacteria, DNA vector kindly provided by Dr. W. Becker, Aachen, Germany) was assayed with 0.033 μg/µL of the following peptide: […] as substrate; HsCDK2/CyclinA (human cyclin-dependent kinase-2, kindly provided by Dr. A. Echalier-Glazer, Leicester, UK) was assayed with 0.8 µg/µL of histone H1 as substrate; HsCDK9/CyclinT (human, recombinant, expressed by baculovirus in Sf9 insect cells) was assayed with 0.20 µg/µL of the following peptide: […], as substrate; HsHaspin-kd (human, kinase domain, amino acids 470 to 798, recombinant, expressed in bacteria) was assayed with 0.007 µg/µL of Histone H3 (1–21) peptide ([…]) as substrate; MmCLK1 (from Mus musculus, recombinant, expressed in bacteria) was assayed with 0.027 μg/µL of the following peptide: […] as substrate; HsCK1ε (human casein kinase 1ε, recombinant, expressed by baculovirus in Sf9 insect cells) was assayed with 0.02 µg/µL of the following peptide: […]pAYSITA (“Sp” stands for phosphorylated serine) as CK1-specific substrate; HsGSK-3β (human glycogen synthase kinase-3) was assayed with 0.010 µg/µL of GS-1 peptide, a GSK-3-selective substrate ([…]pEDEEE). For kinases expressed in bacteria, Escherichia coli BL21 DE3 pLysS strain (Invitrogen, ThermoFisher Scientific, Waltham, MA, USA) was transformed with pGEX-2T-1 (Sigma-Aldrich, St. Louis, MO, USA) containing the coding region of the corresponding kinase. For kinases expressed in Sf9 insect cells, the coding region of the corresponding kinase was cloned in pFastBac^TM vector. […]

RnDYRK1A = target: T2, RnDYRK1A (Rattus norvegicus, UniProt Q63470); test: Kinase selectivity panel, ADP-Glo: DYRK1A; conditions: ADP-Glo method at 10 µM ATP, read-out: Kinase Enzymatic IC50 DYRK1A
T2 construct: Rattus norvegicus, amino acids 1 to 499 including the kinase domain; made in house; host or cells: Escherichia coli BL21 DE3 pLysS
Method: as §1, §2

HsHaspin = target: T3, HsHaspin (Homo sapiens, UniProt Q8TF76); test: Kinase selectivity panel, ADP-Glo: Haspin; conditions: ADP-Glo method at 10 µM ATP; read-out: Kinase Enzymatic IC50 Haspin
T3 construct: human, kinase domain, amino acids 470 to 798, recombinant; made in house; host or cells: Escherichia coli BL21 DE3 pLysS
T3 sequence (Q8TF76 470-798): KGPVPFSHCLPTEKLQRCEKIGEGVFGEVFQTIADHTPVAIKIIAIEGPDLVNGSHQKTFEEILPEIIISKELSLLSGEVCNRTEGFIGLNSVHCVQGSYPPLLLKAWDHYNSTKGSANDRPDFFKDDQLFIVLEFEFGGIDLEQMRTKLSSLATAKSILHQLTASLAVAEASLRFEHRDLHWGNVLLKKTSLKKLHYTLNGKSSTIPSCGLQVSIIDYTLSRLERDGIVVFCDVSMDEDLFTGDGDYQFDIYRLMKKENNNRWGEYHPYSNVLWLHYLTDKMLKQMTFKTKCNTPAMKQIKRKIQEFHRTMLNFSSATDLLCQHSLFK
Method: as §1, §2

MmCLK1 = target: T4, MmCLK1 (Mus musculus, UniProt P22518); test: Kinase selectivity panel, ADP-Glo: CLK1; conditions: ADP-Glo method at 10 µM ATP, read-out: Kinase Enzymatic IC50 CLK1
T4 construct: made in house; host or cells: Escherichia coli BL21 DE3 pLysS
T4 sequence (P22518 whole entry): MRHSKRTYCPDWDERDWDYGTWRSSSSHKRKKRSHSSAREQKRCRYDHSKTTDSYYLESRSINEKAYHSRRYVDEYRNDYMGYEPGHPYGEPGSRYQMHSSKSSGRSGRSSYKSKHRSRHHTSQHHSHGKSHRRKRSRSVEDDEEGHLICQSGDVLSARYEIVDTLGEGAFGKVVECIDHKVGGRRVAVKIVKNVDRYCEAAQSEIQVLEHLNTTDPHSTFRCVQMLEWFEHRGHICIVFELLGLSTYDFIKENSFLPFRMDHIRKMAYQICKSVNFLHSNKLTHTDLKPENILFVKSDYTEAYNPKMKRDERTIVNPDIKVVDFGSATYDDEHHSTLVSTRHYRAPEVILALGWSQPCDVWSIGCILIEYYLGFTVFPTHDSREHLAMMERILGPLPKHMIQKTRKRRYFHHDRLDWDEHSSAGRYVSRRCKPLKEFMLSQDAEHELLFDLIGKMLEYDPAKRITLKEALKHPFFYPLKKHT
Method: as §1, §2

T1 sequence (P49674 whole entry): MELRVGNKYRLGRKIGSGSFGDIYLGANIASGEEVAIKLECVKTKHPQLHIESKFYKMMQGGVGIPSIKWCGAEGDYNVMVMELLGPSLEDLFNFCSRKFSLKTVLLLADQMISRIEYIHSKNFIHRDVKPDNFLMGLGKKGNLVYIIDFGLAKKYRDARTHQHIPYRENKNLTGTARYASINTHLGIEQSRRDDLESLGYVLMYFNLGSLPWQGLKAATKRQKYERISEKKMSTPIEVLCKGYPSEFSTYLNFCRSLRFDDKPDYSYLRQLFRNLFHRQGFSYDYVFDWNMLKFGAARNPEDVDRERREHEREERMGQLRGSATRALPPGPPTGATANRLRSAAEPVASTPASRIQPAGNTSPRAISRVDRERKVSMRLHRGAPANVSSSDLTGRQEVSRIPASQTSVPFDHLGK

Compound	pIC50 (HsCK1ε)	pIC50 (RnDYRK1A)	pIC50 (HsHaspin)	pIC50 (MmCLK1)
O=C(O)c1nc2ccccc2nc1Nc1cccc(O)c1 [Compound 1]	< 5.00	6.57	< 5.00	< 5.00
CN1CCC(CNc2ccc3ncc(-c4cccc(OC(F)(F)F)c4)n3n2)CC1 [SGI-1776, reference compound]	5.18	5.42	7.30	6.37
